Results: patent publication US20240101552A1, “CARBONYL HETEROCYCLIC COMPOUND AND APPLICATION THEREOF” (SHANGHAI PHARMACEUTICALS HOLDING CO., LTD., priority 2020, published 2024)

Biological target: LANCL2 (Homo sapiens (Human), UniProt Q9NS86)
Assay: SPR (BIACORE S200) kinetic determination of LANCL2-small molecule interactions
Assay type: binding
Conditions: for Kd: immobilized LANCL2, 1:1 binding model, pH 6.5, 25° C.; for Rmax (RU): maximum binding force
Experimental: 1.1 Reagent Materials • Ligand: LANCL2 • Running buffer: 20 mM MES, 150 mM NaCl, 0.05% P20, pH 6.5, 1% DMSO
Injection conditions for small molecule compounds: a flow rate of 30 μL/min, a binding time of 60 s, a dissociation time of 300 s.
Running buffer: 20 mM MES, 150 mM NaCl, 0.05% P20, pH 6.5, 1% DMSO.
Sample chamber temperature: 25° C.; analysis temperature: 25° C.
Kinetic determination of LANCL2-small molecule interactions was performed. The kinetic parameters of small molecules BT-11 and L-1 to 60 (analytes) binding to LANCL2 (ligand) were determined using BIACORE S200. Data were generated in triplicate in a dose-dependent manner (5-8 titration points) and analyzed to determine binding models (Langmuir, conformational shifts, etc.), real-time association and dissociation constants, and equilibrium dissociation constants. SPR technology allows the validation of specific LANCL2-phytochemical interactions as well as an increased insight into the gold standard of binding mechanisms and rates. Experiments were performed on carboxymethyl polydextrose (CM5) sensor chips by amine-coupled covalent attachment of LANCL2. Data were analyzed with BIACORE S200T200 evaluation software (version 1), so as to determine affinity binding constants (KD) using a 1:1 binding model.
An optical technique for detecting molecular interactions, SPR, was used to measure the binding affinity between LANCL2 and a ligand thereof (compound to be tested). Purified recombinant LANCL2 protein was immobilized on a BIACORE sensor chip and small molecules were injected onto the protein surface using an equipment of microfluidic system. The change in total mass on the chip surface, corresponding to a small binding to the protein, was measured. […] The equilibrium dissociation constant (Kd) was often used to describe the affinity between a ligand and a protein, such as affinity degree of a ligand binding to a specific protein. Ligand-protein affinity was affected by non-covalent intermolecular interactions between two molecules, such as hydrogen bonding, electrostatic interactions, hydrophobic bonds and van der Waals forces. The steady-state affinity (Kd) for each interaction could be measured by plotting equilibrium binding levels against compound concentrations.

Chain of LANCL2 (Q9NS86 whole entry, species assumed): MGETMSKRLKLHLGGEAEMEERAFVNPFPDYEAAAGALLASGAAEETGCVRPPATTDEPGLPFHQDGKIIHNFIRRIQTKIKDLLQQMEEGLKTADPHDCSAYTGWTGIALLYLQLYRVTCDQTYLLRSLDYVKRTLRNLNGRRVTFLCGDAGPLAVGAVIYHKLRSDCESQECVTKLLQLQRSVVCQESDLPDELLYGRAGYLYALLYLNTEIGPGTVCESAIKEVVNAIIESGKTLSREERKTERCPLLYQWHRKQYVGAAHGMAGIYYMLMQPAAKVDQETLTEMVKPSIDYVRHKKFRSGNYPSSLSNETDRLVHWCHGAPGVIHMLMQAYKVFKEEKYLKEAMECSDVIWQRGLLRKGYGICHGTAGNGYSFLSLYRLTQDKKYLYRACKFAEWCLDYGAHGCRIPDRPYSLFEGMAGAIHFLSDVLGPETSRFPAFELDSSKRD

| Kd [µM] | Rmax (RU) | Compound | binding activity compared with positive reference compound BT-11 |
| --- | --- | --- | --- |
| 6.93 | 5.3 | O=C(c1cccc(-c2cn3ccccc3n2)c1)N1CCC2(CC1)CCN(C(=O)c1cccc(Nc3ccccc3)n1)CC2 [Embodiment L-72, (9-(3-(imidazo[1,2-a]pyridin-2-yl)benzoyl)-3,9-diazaspiro[5.5]undecan-3-yl)(6-(phenylamino)pyridin-2-yl)methanone] |  |
| 8.73 | 4.5 | O=C(c1cccc(-c2cn3ccccc3n2)c1)N1CCC2(CC1)CCN(C(=O)c1cccc(-c3cn4ccccc4n3)c1)CC2 [Embodiment L-73, (3,9-diazaspiro[5.5]undecane-3,9-diyl)bis((3-(imidazo[1,2-a]pyridin-2-yl)phenyl)methanone)] |  |
| 25.8 | 0.102 | O=C(c1cccc(-c2cn3ccccc3n2)c1)N1CC2CN(C(=O)c3cccc(-c4cn5ccccc5n4)c3)CC2C1 [Embodiment L-74, (tetrahydropyrrolo[3,4-c]pyrrole-2,5(1H,3H)-diyl)bis((3-(imidazo[1,2-a]pyridin-2-yl)phenyl)methanone)] |  |
| 1.9 | 7.3 | O=C(NC1C2CN(C(=O)c3cccc(-c4nc5ccccc5s4)c3)CC21)c1cccc(-c2nc3ccccc3[nH]2)n1 [Embodiment L-77, 6-(1H-benzo[d]imidazol-2-yl)-N-(3-(3-(benzo[d]thiazol-2-yl)benzoyl)-3-azabicyclo[3.1.0]hexane-6-yl)picolinamide] | better binding activities than the positive reference compound BT-11 |
| 81.5 | 14.4 | O=C(c1ccnc(Nc2ccccc2)n1)N1CCC2(CC1)CCN(C(=O)c1ccnc(Nc3ccccc3)n1)CC2 [Embodiment L-78, (3,9-diazaspiro[5.5]undecane-3,9-diyl)bis((2-(phenylamino)pyrimidin-4-yl)methanone)] |  |
| 24.8 | 13 | O=C(NC1CCN(C(=O)c2ccnc(Nc3ccccc3)n2)CC1)c1ccnc(Nc2ccccc2)n1 [Embodiment L-79] |  |
| 28.4 | 8.5 | O=C(c1cccc(Nc2ccccc2)n1)N1CCC2(CC1)CCN(C(=O)c1ccnc(Nc3ccccc3)n1)CC2 [Embodiment L-80, (9-(6-(phenylamino)picolinoyl)-3,9-diazaspiro[5.5]undecan-3-yl)(2-(phenylamino)pyrimidin-4-yl)methanone] |  |
| 23 | 10.5 | O=C(NC1CCN(C(=O)c2ccnc(Nc3ccccc3)n2)CC1)c1cccc(Nc2ccccc2)n1 [Embodiment L-81, 6-(phenylamino)-N-(1-(2-(phenylamino)pyrimidine-4-carbonyl)piperidin-4-yl)picolinamide] |  |
| 42.3 | 9.4 | O=C(c1cccc(-c2nc3ccccc3[nH]2)n1)N1CC2CN(C(=O)c3ccnc(Nc4ccc(F)cc4)n3)CC2C1 [Embodiment L-82] |  |
| 16.4 | 9.7 | O=C(NC1CCN(C(=O)c2cccc(-c3cn4ccccc4n3)c2)CC1)c1cccc(-c2cn3ccccc3n2)c1 [Embodiment L-88, 3-(imidazo[1,2-a]pyridin-2-yl)-N-(1-(3-(imidazo[1,2-a]pyridin-2-yl)benzoyl)piperidin-4-yl)benzamide] |  |
| 58.8 | 11 | Cc1cn(-c2cccc(C(=O)N3CCC4(CCN(C(=O)c5cccc(-c6cn7ccccc7n6)c5)CC4)CC3)c2)cn1 [Embodiment L-92, (9-(3-(imidazo[1,2-a]pyridin-2-yl)benzoyl)-3,9-diazaspiro[5.5]undecan-3-yl)(3-(4-methyl-1H-imidazol-1-yl)phenyl)methanone] |  |
| 5.84 | 8 | Cc1cn(-c2cccc(C(=O)N3CC4C(C3)C4NC(=O)c3cccc(-c4nc5ccccc5[nH]4)n3)c2)cn1 [Embodiment L-93, 6-(1H-benzo[d]imidazol-2-yl)-N-(3-(3-(4-methyl-1H-imidazol-1-yl)benzoyl)-3-azabicyclo[3.1.0]hexane-6-yl)picolinamide] |  |
| 2.09 | 5.2 | Cc1ccc(C(=O)N2CCC3(CCN(C(=O)c4cccc(-c5cn6ccccc6n5)c4)CC3)CC2)cc1NC1=CC(=O)c2ccccc2C1=O [Embodiment L-95, 2-((5-(9-(3-(imidazo[1,2-a]pyridin-2-yl)benzoyl)-3,9-diazaspiro[5.5]undecane-3-carbonyl)-2-methylphenyl)amino)naphthalene-1,4-dione] | better binding activities than the positive reference compound BT-11 |
| 1.91 | 2.3 | NC(=O)c1sccc1NC(=O)c1ccc(C(=O)N2CCC3(CC2)CCN(C(=O)c2cccc(-c4cn5ccccc5n4)c2)CC3)cc1 [Embodiment L-96, 3-(4-(9-(3-(imidazo[1,2-a]pyridin-2-yl)benzoyl)-3,9-diazaspiro[5.5]undecane-3-carbonyl)benzamido)thiophene-2-carboxamide] | better binding activities than the positive reference compound BT-11 |
| 23.3 | 5.5 | O=C(N[C@H]1[C@@H]2CN(C(=O)c3cccc(Nc4ccccc4)n3)C[C@@H]21)c1cccc(Nc2ccccc2)n1 [Embodiment L-101] |  |
| 48.4 | 13.7 | O=C(c1cnc2ccccc2c1)N1CCN(C(=O)c2cccc(-c3nc4ccccc4[nH]3)n2)CC1 [Embodiment L-108, (4-(6-(1H-benzo[d]imidazol-2-yl)picolinoyl)piperazin-1-yl)(quinolin-3-yl)methanone] |  |
| 26.2 | 15 | O=C(c1cccc(-c2nc3ccccc3[nH]2)n1)N1CCN(C(=O)c2n[nH]c3ccccc23)CC1 [Embodiment L-110, (4-(6-(1H-benzo[d]imidazol-2-yl)picolinoyl)piperazin-1-yl)(1H-indazol-3-yl)methanone] |  |
| 17.7 | 20.8 | NC(=O)c1sccc1NC(=O)c1ccc(C(=O)N2CCN(C(=O)c3cccc(-c4nc5ccccc5[nH]4)n3)CC2)cc1 [Embodiment L-115, 3-(4-(4-(6-(1H-benzo[d]imidazol-2-yl)picolinoyl)piperazine-1-carbonyl)benzamido)thiophene-2-carboxamide] |  |
| 14.8 | 32.5 | Cc1ccc(C(=O)N2CCN(C(=O)c3cccc(-c4nc5ccccc5[nH]4)n3)CC2)cc1NC1=CC(=O)c2ccccc2C1=O [Embodiment L-116, 2-((5-(4-(6-(1H-benzo[d]imidazol-2-yl)picolinoyl)piperazine-1-carbonyl)-2-methylphenyl)amino)naphthalene-1,4-dione] |  |
| 27 | 3.2 | Cc1cn(-c2cccc(C(=O)N3CCN(C(=O)c4cccc(-c5nc6ccccc6[nH]5)n4)CC3)c2)cn1 [Embodiment L-117, (4-(6-(1H-benzo[d]imidazol-2-yl)picolinoyl)piperazin-1-yl)(3-(4-methyl-1H-imidazol-1-yl)phenyl)methanone] |  |
| 6.78 | 10.8 | O=C(Nc1cccc(-c2cn3ccccc3n2)c1)Nc1cccc(-c2cn3ccccc3n2)c1 [Embodiment L-119, 1,3-Bis(3-(imidazo[1,2-a]pyridin-2-yl)phenyl)urea] |  |
| 22.1 | 8.9 | O=C(c1cccc(-c2nc3ccccc3[nH]2)n1)N1CC2CN(C(=O)c3n[nH]c4ccccc34)CC2C1 [Embodiment L-120, (5-(6-(1Hbenzo[d]imidazol-2-yl)picolinoyl)hexahydropyrrolo[3,4-c]pyrrol-2(1H)-yl)(1H-indazol-3-yl)methanone] |  |

| Compound | Kd [µM] | Rmax (RU) | binding activity compared with positive reference compound BT-11 |
| --- | --- | --- | --- |
| O=C(c1ccnc(Nc2ccccc2)n1)N1CC2CN(C(=O)c3ccnc(Nc4ccccc4)n3)CC2C1 [Embodiment L-83] | 53.7 | 9.6 |  |
| Cc1ccc(C(=O)N2CC3C(C2)C3NC(=O)c2cccc(-c3nc4ccccc4[nH]3)n2)cc1NC1=CC(=O)c2ccccc2C1=O [Embodiment L-91] | 1.71 | 5.2 |  |
| O=C(c1cccc(Nc2ccccc2)n1)N1CC2CN(C(=O)c3cccc(Nc4ccccc4)n3)CC2C1 [Embodiment L-100] | 38.5 | 7.8 |  |
| O=C(N[C@H]1[C@@H]2CN(C(=O)c3sccc3-n3cccc3)C[C@@H]21)c1cccc(-c2cn3ccccc3n2)c1 [Embodiment L-104, N-((1R,5S,6s)-3-(3-(1H-pyrrol-1-yl)thiophene-2-carbonyl)-3-azabicyclo[3.1.0]hexan-6-yl)-3-(imidazo[1,2-a]pyridin-2-yl)benzamide] | 12.5 | 9.7 |  |
| CCCCOc1ccc(C(=O)NC2CCN(C(=O)c3cccc(-c4cn5ccccc5n4)c3)CC2)cc1 [Embodiment L-107, 4-Butoxy-N-(1-(3-(imidazo[1,2-a]pyridin-2-yl)benzoyl)piperidin-4-yl)benzamide] | 6.19 | 4.5 |  |
